The nature of data set [1]: CD melting experiments of multiple N2-modified G-quadruplexes in low salt. The data set is classed as physicochemical. The following applies: low salt (1 mM KPi+1 mM KCl), CD at 290 nm. The method, then: CD melting experiments were performed for the unmodified sequence and for sequences containing multiple N2-modifications. Samples contained 4-5 μM DNA by strand concentration in 1 mM KCl and 1 mM KPi. Samples were heated to 95° C. (98° C. for N2-Ball-with-Hair sample) and cooled to 15° C. at a rate of 0.2° C./min. Samples were then heated in a similar manner. Data was recorded every 0.5° C. at 290 nm and corrected by subtraction at 320 nm. Normalized melting curves are used to determine the melting temperature (Tm) of modified sequences, which is taken as an average of the heating and cooling curves.
The designed sequences were tested in a “low salt” solution of 1 mM KPi+1 mM KCl. Of the sequences tested with multiple modifications, SEQ ID Nos. 38, 39, 41 and 42 were determined to maintain the (3+1) conformation by analysis of ^1H NMR and CD spectra, which were highly similar to SEQ ID NO:1 (FIG. 4).
Additionally, these changes in stability were roughly equivalent to the sum of stability changes observed for the individual single-position substitutions.

The nature of data set [2]: Temperature dependent CD spectra under physiological salt conditions. The data set is classed as physicochemical. As for the experimental part: Spectra were recorded on a JASCO-815 spectropolarimeter (Tokyo, Japan). Samples contained a DNA strand concentration of 4-5 μM. […] Spectra were normalized through subtracting by the CD absorbance at 320 nm and dividing by concentration of the sample determined by concurrent UV absorption measurements. Samples were annealed prior to recording of CD spectra by heating to 100° C. and allowed to cool slowly at room temperature.
The stability of the “Ball with Hair” structure formed by SEQ ID NO:42 under “physiological salt” conditions (10 mM Kpi+130 mM KCL) was similar to those experienced in a cellular environment. NMR spectra of SEQ ID NO:42 under physiological salt conditions matched the spectra recorded in low salt conditions.

On to “SEQ ID NO:38: contains two ^HexG substitutions into separate grooves in positions that were highly stabilizing in the single-substitutions studies (TTNGGTTANGGTTAGGGTTAGGGA; two N2-hexyl guanine modifications, chemistry not fully specified)”, for which, in data set [1], the “Δ Tm” value is “+6.9 °C”.

For the substance “SEQ ID NO:39: contains two ^MetG substitutions of guanines that neighbors within the wide groove (TTGGGTTAGNNTTAGGGTTAGGGA; two N2-methyl guanine modifications, chemistry not fully specified)”, the “Δ Tm” value in data set [1] is “+18.2 °C”.

Take “SEQ ID NO:41: designed to contain a modification in each groove of the G-quadruplex nanoparticle (TTNGGTTANGNTTANGGTTAGGGA; DNA, backbone and the base at N not given here; N2-modified guanines at marked positions)”: the “Δ Tm” value in data set [1] was “+26.6 °C”.

Take “SEQ ID NO:42: containing eight ^HexG modifications towards the design of a "Ball with Hair" type of nanoparticle (TTNNGTTANGNTTANGNTTAGNNA; eight N2-hexyl guanine modifications, chemistry not fully specified)”: the melting temperature in data set [2] (physiological K+ conditions (10 mM KPi+130 mM KCl)) was more than 95 °C; in data set [1], 91.7 °C. Further, the “CD signal intensity observed at 95° C.” value in data set [2] (physiological salt (10 mM KPi+130 mM KCl), 95° C.) was “more than 80%”. Moreover, the results for the “Δ Tm” value in data set [1] and in data set [1] (listed as ball with hair) were “+46.2 °C” and 46 °C, respectively.

Regarding “SEQ ID NO:43: contains a variety of 8 N2-modifications aimed to maximize the thermal stability (TTNGGTTANGNTTANGNTTANGNA; DNA, backbone and the base at N not given here; further chemistry not fully specified)”, the “Δ Tm” value in data set [1] is “+35.6 °C”.

These data come from patent US20160310519A1, “MODIFIED G-QUADRUPLEX NANOPARTICLES” (NANYANG TECHNOLOGICAL UNIVERSITY, priority 2013, published 2016).
